Reference: patent publication US8741871B2, “Trehalose compound, method for producing same, and pharmaceutical product containing the compound” (priority 2008, dated 2014)

Key:
[1] = system: mouse intraperitoneal macrophages; assay: Measurement of active oxygen released from mouse intraperitoneal macrophages (H2DCFDA fluorescence); format: cell-based; conditions: 50 μM test compound, one hour; FIG. 1
Procedure: 3 ml of 5% thioglycolate medium (Difco, BD, code. 225640, Lot. 6192372) was administered into the abdominal cavity of a mouse (ICR mouse (SPF), 5-week-old, male). Four days after the administration, the mouse was sacrificed with the use of diethyl ether. […] This operation was repeatedly carried out two times. […] Thereafter, the number of macrophages was counted with One Cell Counter (Wakenyaku Co., Ltd.). The obtained macrophages were diluted with an RPMI-1640 medium to have any given concentration. The thus obtained mouse intraperitoneal macrophages were used in the subsequent test.
0.7 g of BSA was weighed into a large test tube. […] Subsequently, protein was quantified using Nano Drop ND-1000, and it was then diluted with sterilized PBS (−) so as to result in a final concentration of 2%. […]
After the macrophages had been washed with HBSG-BSA, they were then suspended in approximately 5 mL of HBSG-BSA, and 100 of the obtained suspension was then dispensed into each well of a 96-well Collagen Well (TC-PLATE 96 WELL, STERILE WITH LID, IND PACKED). […] One hour later, the amount of active oxygen was measured using Genios fluorescence intensity measurement apparatus.
The above-mentioned H2DCFDA is a fluorescent probe, and its fluorescence intensity is increased in the presence of hydrogen peroxide (H2O2).

[2] = system: Salmonella typhmurium TA98; assay: Mutagenicity test (Ames test); conditions: TA98, in the presence or absence of S9 mix; FIG. 11
[3] = system: Welch bacillus (C. perfringens Type-A NCTC8237); format: in vivo; conditions: pre-administration 100 μg/mouse i.p., twenty-four hours later 5.0×10^7 CFU/mL Welch bacillus i.p.; FIG. 16
[4] = system: mouse intraperitoneal infiltrating cells; assay: Cell infiltration into mouse abdominal cavity (cell count, Giemsa staining, flow cytometry); conditions: 100 μg/mouse i.p.
THP-1 cells = assay: Release of cytokine (MIP-1β, TNF-α) from THP-1 cells (ELISA); format: cell-based, human; conditions: 100 μM test compound, 2 hours, FIG. 9; for release level of TNF-α from THP-1 cells compared with the negative control: negative control vehicle; for release level of MIP-1β from THP-1 cells compared with the positive control: positive controls control compound A and TDCM
[5] = system: mouse intraperitoneal macrophages; assay: Measurement of cytokine released from mouse intraperitoneal macrophages (ELISA); format: cell-based; conditions: 100 μM test compound, two hours
Procedure: Mouse intraperitoneal macrophages, a 40 mM test compound solution, and an RPMI 1640 medium were prepared in the same manner as described above.
Macrophages were added to a TC-Plate, so that they became 80% confluent. The macrophages were incubated at 37° C. for 2 hours. Thereafter, the supernatant was discarded, and the cells were then washed with 500 μl of RPMI 1640 medium. This washing operation was repeatedly carried out two times. An emulsion solution of the test compound (final concentration: 100 μM) was allowed to act on the macrophages, and two hours later, the medium was transferred into another Eppendorf tube. […] This supernatant was used as a sample, and the released cytokines were analyzed using ELISA kit (IL-6, TNF-α Quantikine Immunoassay (R & D System (trademark)).

[6] = system: Welch bacillus toxin (recombinant α-toxin); conditions: in vivo, ip
[7] = twenty-four hours after administration, flow cytometry

For CCCCCCCCCC(CCCCCCCCC)CC(=O)OCC1O[C@H](O[C@H]2OC(COC(=O)CC(CCCCCCCCC)CCCCCCCCC)[C@@H](O)C(O)C2O)C(O)C(O)[C@@H]1O (stereo partly drawn) [Example 9, 6,6′-bis-O-(3-nonyldodecanoyl)-α,α′-trehalose], the “action to promote the generation of active oxygen from mouse intraperitoneal macrophages, compared with TDCM” value [1] was “two times higher than the activity of TDCM”, the “mutagenicity (Ames test, number of His colonies)” value [2] was “did not exhibit mutagenicity” and the “lethality of Welch bacillus-infected mice” value [3] was “significantly suppressed”. For the same compound, the “infiltrating cells in the abdominal cavity of mice over time” value ([4]; 2 hours or 24 hours after administration, FIG. 12) was “an increase in infiltrating cells was observed time-dependently”, the “abundance ratio of the CD11b-positive cells and CD4-positive cells compared with vehicle” value [4, 7] was “hardly changed” and the “total number of CD11b-positive cells, CD4-positive cells and CD8-positive cells compared with vehicle” value [4, 7] was 15 to 20 times. For the same compound, the “abundance ratio of the CD8-positive cells compared with vehicle” value ([4]; twenty-four hours after administration, flow cytometry, FIGS. 13 to 15) was 2 to 3 times, the “number of infiltrating cells in mouse abdominal cavity compared with vehicle” value ([4]; twenty-four hours later, FIG. 12) was 15 to 20 times and the “release level of TNF-α from THP-1 cells compared with the negative control” value (THP-1 cells) was “almost equivalent to”. The “release level of MIP-1β from THP-1 cells compared with the positive control” value (THP-1 cells) was 8 to 10 times.

In the case of CCCCCCCCCCC(CCCCCCCCCC)C(=O)OCC1O[C@H](O[C@H]2OC(COC(=O)C(CCCCCCCCCC)CCCCCCCCCC)[C@@H](O)C(O)C2O)C(O)C(O)[C@@H]1O (stereo partly drawn) [Example 1, 6,6′-bis-O-(2-decyldodecanoyl)-α,α′-trehalose], the “action to promote the generation of active oxygen from mouse intraperitoneal macrophages, compared with TDCM” value [1] is reported as “two times higher than the activity of TDCM”, the “amount of IL-6 released from mouse intraperitoneal macrophages” value ([5]; vehicle approximately 15 pg/ml) is reported as “approximately 200 pg/ml” and the “amount of TNF-α released from mouse intraperitoneal macrophages” value ([5]; vehicle approximately 80 pg/ml) is reported as “approximately 1000 pg/ml”. For the same compound, the “Number of surviving mice/number of treated mice, 2 hours later” value [6] was 4/4, the “Number of surviving mice/number of treated mice, 6 hours later” value [6] was 4/4 and the “Number of surviving mice/number of treated mice, 12 hours later” value [6] was 4/4. The “Number of surviving mice/number of treated mice, 24 hours later” value [6] was 3/4, the “Number of surviving mice/number of treated mice, 48 hours later” value [6] was 3/4 and the “mutagenicity (Ames test, number of His colonies)” value [2] was “significant results could be obtained”. For the same compound, the “release level of TNF-α from THP-1 cells compared with the negative control” value (THP-1 cells) was “almost equivalent to” and the “release level of MIP-1β from THP-1 cells compared with the positive control” value (THP-1 cells) was “higher than”.
